Test results: paper PMC7866972, “Crosstalk of Cancer Signaling Pathways by Cyclic Hexapeptides and Anthraquinones from Rubia cordifolia” (Molecules, 2021)

What was measured:
Format in all cases: cell-based
Stat3 = Stat3 luciferase reporter assay (IL-6 induced); settings: Homo sapiens, HeLa cells
Protocol: (§1) Hela cells from ATCC were plated in white opaque 384 well plates at a density of 4300 cells/well in 30 µL of a growth medium (DMEM with 10% FBS and 1% Pen/step). The next day, the medium was aspirated and replaced with DMEM containing 10% FBS. The cells were transfected with respective plasmids using the X-tremeGENE HP transfection reagent (Roche). Luciferase vectors used in this assay are summarized in Table S2, Supporting Information. After 24 h of transfection, the test agents were added to the transfected cells, followed 30 min later by an inducing agent (IL-6 for Stat 3, TGF-beta for Smad, m-wnt3a for Wnt and PMA for AP-1, NF-kB, E2F, Myc, ETS, Notch and Hedgehog). No inducer was added for FoXO, miR-21, and […]. After 4 h or 6 h of induction, the cells were lysed by the addition of the One-Glo luciferase assay system (Promega, Madison, WI, USA). The light output was detected in a Glomax Multi+ detection system with the Instinct Software (Promega, Madison, WI, USA). This luciferase assay determines if the test agent was able to inhibit the activation of cancer-related signaling pathways. In the case of FoxO and mi-R21, the enhanced luciferase activity by the test agent was assessed.

E2F = E2F luciferase reporter assay (PMA induced); settings: Homo sapiens, HeLa cells, compared to pTK as control, 4 h, read-out: percentage of luciferase induction E2F/PMA
Protocol: as §1

NF-κB = NF-κB luciferase reporter assay (PMA induced); settings: HeLa cells
Protocol: as §1

Ap-1 = test: AP-1 luciferase reporter assay (PMA induced); settings: HeLa cells, compared to pTK as control, 4 h, read-out: percentage of luciferase induction Ap-1/PMA
Protocol: as §1

miR-21 = miR-21 luciferase reporter assay (no inducer); settings: Homo sapiens, HeLa cells, 6 h, read-out: percentage of luciferase induction mi-R21/No Induction
Protocol: as §1

Hedgehog = Hedgehog luciferase reporter assay (PMA induced); settings: Homo sapiens, HeLa cells, compared to pTK as control, 6 h, read-out: percentage of luciferase induction Hdghog/PMA
Protocol: as §1

pTK control vector = pTK control vector luciferase assay (minimal thymidine kinase promoter); settings: Homo sapiens, HeLa cells, no inducer, read-out: percentage of luciferase induction pTK/No Induction
Protocol: as §1

FoxO = FoxO luciferase reporter assay (no inducer); settings: Homo sapiens, HeLa cells, 6 h, read-out: percentage of luciferase induction FoxO/No Induction
Protocol: as §1

Wnt = Wnt luciferase reporter assay (m-wnt3a induced); settings: Homo sapiens, HeLa cells
Protocol: as §1

Myc = Myc luciferase reporter assay (PMA induced); settings: Homo sapiens, HeLa cells
Protocol: as §1

Ets = Ets luciferase reporter assay (PMA induced); settings: Homo sapiens, HeLa cells
Protocol: as §1

Notch = Notch luciferase reporter assay (PMA induced); settings: Homo sapiens, HeLa cells, compared to pTK as control, 6 h, read-out: percentage of luciferase induction Notch/PMA
Protocol: as §1

Smad = Smad luciferase reporter assay (TGF-beta induced); settings: Homo sapiens, HeLa cells
Protocol: as §1

[1] = system: cancer-related signaling pathways in HeLa cells; test: Panel of luciferase reporter genes for cancer-related signaling pathways; settings: HeLa cells; 30 µM
Protocol: as §1
The simulated gastric fluid was prepared as described in the United States Pharmacopoeia (USP, 1995) and consists of 0.2% w/v of NaCl and 0.7% v/v of hydrochloric acid at pH 1.2. Aliquots (48 µL) of SGF were placed in 1.5-mL microcentrifuge tubes and incubated in a water bath at 37 °C [35]. In addition, 2 µL of compound 6 (10 mg/mL in DMSO) was added to each of the SGF vials to start the digestion reaction. The incubation was continued for 60 min and the digestion was stopped with 150 µL of ice-cold cell culture media. The digested samples were used for the cytotoxicity and luciferase assays at different concentrations and the activities were compared between the untreated and SGF treated peptide samples.

[2] = compared to pTK as control, 4 h, read-out: percentage of luciferase induction Stat3/IL-6
[3] = Homo sapiens, compared to pTK as control, 4 h, read-out: percentage of luciferase induction NF-kB/PMA
[4] = compared to pTK as control, 6 h, read-out: percentage of luciferase induction Wnt/m-wnt 3a
[5] = compared to pTK as control, 4 h, read-out: percentage of luciferase induction Myc/PMA
[6] = compared to pTK as control, 4 h, read-out: percentage of luciferase induction Ets/PMA
[7] = compared to pTK as control, 4 h, read-out: percentage of luciferase induction Smad/TGF-β

| Compound | activity at 30 µM (Stat3; [2]) | activity at 30 µM (E2F) | activity at 30 µM (NF-κB; [3]) | activity at 30 µM (Ap-1) | activity at 30 µM (miR-21) | activity at 30 µM (Hedgehog) | activity at 30 µM (pTK control vector) | activity at 30 µM (FoxO) | activity at 30 µM (Wnt; [4]) | activity at 30 µM (Myc; [5]) | activity at 30 µM (Ets; [6]) | activity at 30 µM (Notch) | activity at 30 µM (Smad; [7]) | activity towards the signaling pathways (in words) [1] | further results |
| --- | --- | --- | --- | --- | --- | --- | --- | --- | --- | --- | --- | --- | --- | --- | --- |
| O=C1c2cccc(O)c2C(=O)c2c(O)cccc21 [Compound 12, danthron, reference compound] | 137% | 328% | 62% | 122% | 156% | 168% | 101% | 85% | 122% | 115% | 120% | 126% | 101% |  |  |
| Cc1cc(O)c2c(c1)C(=O)c1cccc(O)c1C2=O [Compound 11, chrysophanol, reference compound] | 171% | 251% | 90% | 115% | 280% | 214% | 183% | 102% | 114% | 144% | 130% | 195% | 160% |  |  |
| CC1(C)CCC2=C(O1)C(=O)c1ccccc1C2=O [Compound 15, α-lapachone, reference compound] |  |  |  |  |  |  |  |  |  |  |  |  |  |  | activity at 5 µM (Stat3; 5 µM, compared to pTK as control, 4 h, read-out: percentage of luciferase induction Stat3/IL-6): 22%; inhibition at 5 µM (Stat3; 5 µM, read-out: inhibition of Stat3 induction): > 50%; activity at 5 µM (E2F; 5 µM): 82%; inhibition of NF-kB induction (NF-κB; 5 µM): more than 50%; activity at 5 µM (NF-κB; Homo sapiens, 5 µM, compared to pTK as control, 4 h, read-out: percentage of luciferase induction NF-kB/PMA): 44%; activity at 5 µM (Ap-1; 5 µM): 88%; activity at 5 µM (miR-21; 5 µM): 127%; activity at 5 µM (Hedgehog; 5 µM): 86%; activity at 5 µM (pTK control vector; 5 µM): 97%; activity at 5 µM (FoxO; 5 µM): 100%; activity at 5 µM (Wnt; 5 µM, compared to pTK as control, 6 h, read-out: percentage of luciferase induction Wnt/m-wnt 3a): 53%; inhibition at 5 µM (Wnt; 5 µM, read-out: inhibition of Wnt induction): > 50%; activity at 5 µM (Myc; 5 µM, compared to pTK as control, 4 h, read-out: percentage of luciferase induction Myc/PMA): 44%; inhibition at 5 µM (Myc; 5 µM, read-out: inhibition of Myc induction): > 50%; activity at 5 µM (Ets; 5 µM, compared to pTK as control, 4 h, read-out: percentage of luciferase induction Ets/PMA): 45%; inhibition at 5 µM (Ets; 5 µM, read-out: inhibition of ETS induction): > 50%; activity at 5 µM (Notch; 5 µM): 85%; activity at 5 µM (Smad; 5 µM, compared to pTK as control, 4 h, read-out: percentage of luciferase induction Smad/TGF-β): 27%; inhibition at 5 µM (Smad; 5 µM, read-out: inhibition of Smad induction): > 50% |
| O=C1c2ccccc2C(=O)c2c1ccc(O)c2O [Compound 1, alizarin] | 81% | 172% | 60% | 87% | 141% | 57% | 116% | 69% | 46% | 61% | 66% | 106% | 109% | selective inhibition of Wnt and Hedgehog signaling pathways |  |
| O=C1c2cccc(O)c2C(=O)c2c(O)cc(CO)cc21 [Compound 14, aloe-emodin, reference compound] | 132% | 178% |  | 138% | 167% | 99% | 136% | 109% | 129% | 95% | 128% | 157% | 78% |  |  |
| O=C1c2ccccc2C(=O)c2c(O)c(O)cc(O)c21 [Compound 2, purpurin] | 102% | 190% | 65% | 73% | 259% | 152% | 198% | 94% | 77% | 61% | 103% | 194% | 163% | least active among these three anthraquinones |  |
| Cc1cc(O)c2c(c1)C(=O)c1cc(O)cc(O)c1C2=O [Compound 3, emodin] | 48% | 144% | 45% | 45% | 309% | 42% | 144% | 112% | 11% | 46% | 53% | 424% | 46% | inhibited the activation of several pathways with Wnt being the most sensitive |  |
| O=C1c2ccccc2C(=O)c2c(O)ccc(O)c21 [Compound 13, quinizarin, reference compound] | 164% | 282% | 62% | 107% | 171% | 142% | 134% | 101% | 97% | 81% | 127% | 198% | 159% |  |  |
